According to patent US20220017491A1, “COMPOUND INHIBITING YAP-TEAD BINDING, AND PHARMACEUTICAL COMPOSITION FOR PREVENTING OR TREATING CANCER, COMPRISING COMPOUND AS ACTIVE INGREDIENT” (KOREA RESEARCH INSTITUTE OF CHEMICAL TECHNOLOGY, priority 2018, published 2022):

These compounds were tested on YAP-TEAD (assay: Luciferase assay of YAP-TEAD binding inhibition (TEAD luciferase reporter 8XGTIIC in HEK293T cells)). Conditions: 10 μM, 24 hours, luciferase normalized with β-galactosidase.
Assay type: cell-based
Experimental: A Luciferase assay which allows an inhibition degree of YAP-TEAD, previously reported in Cancers 2018, 10(5), 140, was used to measure an in vitro binding inhibition rate of YAP-TEAD.
HEK293T cells were purchased from American Type Culture Collection and incubated in DMEM media containing 10% FBS, L-glutamine, and penicillin/streptomycin. The HEK293T cells were seeded in a 24 well plate at a density of 1×10^5, and coated with polyethyleneamine (10 μg/mL). These cells were transfected with 8XGTIIC-luciferase (Addgene reference 34615) which is TEAD luciferase reporter plasmid and control β-galactosidase plasmid CMV-β-Gal using a lipofectamine 2000 reagent (Life Technologies, Inc.) according to the manufacturer's manual. Thereafter, the compound of the present invention was treated at a concentration of 10 μM for 24 hours, the cells were lysed using a Reporter lysis buffer (Promega, France), luciferase activity was read with a Mithras LB940 plate reader, and then normalization was performed with β-galactosidase.

| SMILES | Inhibition(%) |
| --- | --- |
| COc1ccc(CCN2C(=O)c3cccc4c(NC(=O)C5CCCN(S(=O)(=O)c6cccs6)C5)ccc2c34)cc1 (centres unmarked) [Compound 24] | 61% |
| COCCCN1C(=O)c2cccc3c(NC(=O)C4CCCN(S(=O)(=O)c5csc6ccccc56)C4)ccc1c23 (centres unmarked) [Compound 76] | 87% |
| COCCCN1C(=O)c2cccc3c(NC(=O)C4CCCN(S(=O)(=O)c5ccc6c7c(cccc57)C(=O)N6)C4)ccc1c23 (centres unmarked) [Compound 55] | 50% |
| COCCCN1C(=O)c2cccc3c(NC(=O)C4CCCCN4S(=O)(=O)c4cccc(F)c4)ccc1c23 (centres unmarked) [Compound 162] | 74% |
| COCCCN1C(=O)c2cccc3c(NC(=O)C4CCCN(S(=O)(=O)c5ccc(OCCN(C)C)c(C)c5)C4)ccc1c23 (centres unmarked) [Compound 123] | 54% |
| COCCCN1C(=O)c2cccc3c(NC(=O)C4CCCCN4S(=O)(=O)c4ccc(N)cc4)ccc1c23 (centres unmarked) [Compound 145] | 53% |
| COCCCN1C(=O)c2cccc3c(NC(=O)C4CCCN(S(=O)(=O)c5cc(Cl)sc5Cl)C4)ccc1c23 (centres unmarked) [Compound 71] | 91% |
| COCCCN1C(=O)c2cccc3c(NC(=O)C4CCCN(S(=O)(=O)c5sc6ccc(Cl)cc6c5C)C4)ccc1c23 (centres unmarked) [Compound 48] | 58% |
| COCCCN1C(=O)c2cccc3c(NC(=O)C4CCCN(S(=O)(=O)c5cccs5)C4)ccc1c23 (centres unmarked) [Compound 28] | 81% |
| COCCCN1C(=O)c2cccc3c(NC(=O)C4CCCN(S(=O)(=O)c5ccc(-c6ccccc6)cc5)C4)ccc1c23 (centres unmarked) [Compound 151] | 57% |
| COCCCN1C(=O)c2cccc3c(NC(=O)C4CCCN(S(=O)(=O)c5c(C)noc5C)C4)ccc1c23 (centres unmarked) [Compound 35] | 56% |
| O=C(Nc1ccc2c3c(cccc13)C(=O)N2CCc1c[nH]c2ccccc12)C1CCCCN1S(=O)(=O)c1cccs1 (centres unmarked) [Compound 13] | 50% |
| CS(=O)(=O)N1CCC(CCN2C(=O)c3cccc4c(NC(=O)C5CCCN(S(=O)(=O)c6ccco6)C5)ccc2c34)CC1 (centres unmarked) [Compound 136] | 80% |
| COCCCN1C(=O)c2cccc3c(NC(=O)C4CCCN(S(=O)(=O)c5ccc(-c6ccccn6)s5)C4)ccc1c23 (centres unmarked) [Compound 119] | 68% |
| COCCCN1C(=O)c2cccc3c(NC(=O)C4CCCCN4S(=O)(=O)c4ccc(NC(C)=O)cc4)ccc1c23 (centres unmarked) [Compound 153] | 55% |
| O=C(Nc1ccc2c3c(cccc13)C(=O)N2CCS(=O)(=O)c1ccccc1)C1CCCCN1S(=O)(=O)c1ccc2c(c1)CCO2 (centres unmarked) [Compound 156] | 64% |
| COCCCN1C(=O)c2cccc3c(NC(=O)C4CCCN(S(=O)(=O)c5ccc6c(c5)OCCO6)C4)ccc1c23 (centres unmarked) [Compound 49] | 51% |
| O=C(Nc1ccc2c3c(cccc13)C(=O)N2CCS(=O)(=O)c1ccccc1)C1CCCN(S(=O)(=O)c2ccc3c(c2)CCO3)C1 (centres unmarked) [Compound 155] | 66% |
| COCCCN1C(=O)c2cccc3c(NC(=O)C4CCCCN4S(=O)(=O)c4ccc(-c5ccccc5)s4)ccc1c23 (centres unmarked) [Compound 159] | 84% |

| SMILES | Inhibition(%) |
| --- | --- |
| COCCCN1C(=O)c2cccc3c(NC(=O)C4CCCN(S(=O)(=O)c5c(C)c(C)c6c(c5C)CC(C)(C)O6)C4)ccc1c23 (centres unmarked) [Compound 50] | 63% |
| COCCCN1C(=O)c2cccc3c(NC(=O)C4CCCN(S(=O)(=O)c5ccc6c(c5)OC(F)(F)O6)C4)ccc1c23 (centres unmarked) [Compound 149] | 59% |
| COCCCN1C(=O)c2cccc3c(NC(=O)C4CCCCN4S(=O)(=O)c4ccc(-c5ccccc5)cc4)ccc1c23 (centres unmarked) [Compound 152] | 77% |
| O=C(Nc1ccc2c3c(cccc13)C(=O)N2CCc1ccc(Cl)cc1Cl)C1CCCCN1S(=O)(=O)c1cccs1 (centres unmarked) [Compound 26] | 100% |
| COc1ccc(CCN2C(=O)c3cccc4c(NC(=O)C5CCC(NS(=O)(=O)c6cccs6)CC5)ccc2c34)cc1 (centres unmarked) [Compound 22] | 78% |
| COc1ccc(CCN2C(=O)c3cccc4c(NC(=O)[C@H]5CC[C@H](NS(=O)(=O)c6cccs6)CC5)ccc2c34)cc1 [Compound 25] | 61% |
| CS(=O)(=O)N1CCC(CCN2C(=O)c3cccc4c(NC(=O)C5CCCN(S(=O)(=O)c6cccs6)C5)ccc2c34)CC1 (centres unmarked) [Compound 131] | 78% |
| CS(=O)(=O)N1CCC(CCN2C(=O)c3cccc4c(NC(=O)C5CCCCN5S(=O)(=O)c5ccco5)ccc2c34)CC1 (centres unmarked) [Compound 139] | 98% |
| CS(=O)(=O)N1CCC(CCN2C(=O)c3cccc4c(NC(=O)C5CCCCN5S(=O)(=O)c5ccc6c(c5)CCO6)ccc2c34)CC1 (centres unmarked) [Compound 133] | 59% |
| COCCCN1C(=O)c2cccc3c(NC(=O)C4CCCN(S(=O)(=O)c5ccc(F)cc5)C4)ccc1c23 (centres unmarked) [Compound 161] | 88% |
| COCCCN1C(=O)c2cccc3c(NC(=O)C4CCCCN4S(=O)(=O)c4ccco4)ccc1c23 (centres unmarked) [Compound 160] | 53% |
| O=C(Nc1ccc2c3c(cccc13)C(=O)N2Cc1ccccc1)C1CCCN1S(=O)(=O)c1cccs1 (centres unmarked) [Compound 3] | 63% |
| COCCCN1C(=O)c2cccc3c(NC(=O)C4CCCN(S(=O)(=O)c5ccccc5)C4)ccc1c23 (centres unmarked) [Compound 137] | 87% |
| CS(=O)(=O)N1CCC(CCN2C(=O)c3cccc4c(NC(=O)C5CCCCN5S(=O)(=O)c5cccs5)ccc2c34)CC1 (centres unmarked) [Compound 106] | 99.2% |
| COCCCN1C(=O)c2cccc3c(NC(=O)C4CCCN(S(=O)(=O)c5ccc(-c6ccccc6)s5)C4)ccc1c23 (centres unmarked) [Compound 158] | 61% |
| COCCCN1C(=O)c2cccc3c(NC(=O)C4CCCN(S(=O)(=O)c5c(C)n[nH]c5C)C4)ccc1c23 (centres unmarked) [Compound 36] | 54% |
| CS(=O)(=O)N1CCC(CCN2C(=O)c3cccc4c(NC(=O)C5CCCCN5S(=O)(=O)c5ccc6c(c5)OCCO6)ccc2c34)CC1 (centres unmarked) [Compound 134] | 62% |
| COCCCN1C(=O)c2cccc3c(NC(=O)C4CCCCN4S(=O)(=O)c4ccccc4)ccc1c23 (centres unmarked) [Compound 138] | 79% |

What follows are compounds tested on HT29 cells (assay: Proliferation assay for HT29 colorectal cancer cells (CellTiter-Glo cell viability)). Conditions: Homo sapiens, HT-29; HT29 colorectal cancer cell line, 72 hours, ATP detection.
Assay type: cell-based
Experimental: HT-29 which is a commercially available colorectal cancer cell line was treated with trypsin-EDTA, incubated, and seeded in a 96 well plate. […] The treated cells were incubated for further 72 hours and cell viability was measured by an ATP detection method (CellTiter-Glo LuminescentCell Viability Assay, Promega).
In order to confirm the anticancer effect of the compounds according to the present invention, a proliferation assay for HT29 cells which are a colorectal cancer cell line was performed by the above method, and IC50 values as a result are listed in the following Table 4: […]

| SMILES | IC50 |
| --- | --- |
| COCCCN1C(=O)c2cccc3c(NC(=O)C4CCCCN4S(=O)(=O)c4scnc4C)ccc1c23 (centres unmarked) [Compound 81] | 45.4 µM |
| COCCN1C(=O)c2cccc3c(NC(=O)C4CCCCN4S(=O)(=O)c4cccs4)ccc1c23 (centres unmarked) [Compound 12] | 30.7 µM |
| COCCCN1C(=O)c2cccc3c(NC(=O)C4CCCN(S(=O)(=O)c5cc6c(s5)CCCC6)C4)ccc1c23 (centres unmarked) [Compound 65] | 17.5 µM |
| COCCCN1C(=O)c2cccc3c(NC(=O)C4CCCCN4S(=O)(=O)c4cccc(C(F)(F)F)n4)ccc1c23 (centres unmarked) [Compound 82] | 30.6 µM |
| COCCCN1C(=O)c2cccc3c(NC(=O)C4CCCN(S(=O)(=O)c5cc(Br)c(Br)s5)C4)ccc1c23 (centres unmarked) [Compound 61] | 5.6 µM |
| O=C(Nc1ccc2c3c(cccc13)C(=O)N2CCCO)C1CCCCN1S(=O)(=O)c1cccs1 (centres unmarked) [Compound 45] | 40.4 µM |
| COCCCN1C(=O)c2cccc3c(NC(=O)C4CCCCN4S(=O)(=O)c4cc([N+](=O)[O-])c(Cl)s4)ccc1c23 (centres unmarked) [Compound 38] | 2.2 µM |
| O=C(Nc1ccc2c3c(cccc13)C(=O)N2Cc1ccncc1)C1CCCCN1S(=O)(=O)c1cccs1 (centres unmarked) [Compound 18] | 26.4 µM |
| CS(=O)(=O)N1CCCCC1C(=O)Nc1ccc2c3c(cccc13)C(=O)N2Cc1ccccc1 (centres unmarked) [Compound 9] | 25.3 µM |
| O=C(Nc1ccc2c3c(cccc13)C(=O)N2Cc1ccccc1)C1CCCCN1S(=O)(=O)c1ccc([N+](=O)[O-])cc1 (centres unmarked) [Compound 6] | 7.29 µM |
